Results reported in paper PMC8362950 (PLoS ONE, 2021).
Like-named read-outs stand apart in the source and are kept apart here.

Experiments:
6xHis-oMLE [1] = target: T1, 6xHis-oMLE (Oenococcus oeni, UniProt Q48796); type: biochemical
T1 construct: gene mleA

6xHis-CBU0823 = target: T2, 6xHis-CBU0823 (Coxiella burnetii, UniProt Q83DB5); conditions: substrate inhibition constant (KSi), 1 mM MnCl2, PBS pH 7.4
T2 construct: gene sfcA

6xHis-oMLE [2] = target: T1, 6xHis-oMLE; type: biochemical; remark: listed apart in the source
GST-CBU1241 = target: T3, GST-CBU1241 (Coxiella burnetii, UniProt Q83C87); conditions: substrate inhibition constant (KSi); 0.5 mM NADH, PBS pH 7.4
T3 construct: gene mdh
T3 sequence (Q83C87 whole entry, looked up): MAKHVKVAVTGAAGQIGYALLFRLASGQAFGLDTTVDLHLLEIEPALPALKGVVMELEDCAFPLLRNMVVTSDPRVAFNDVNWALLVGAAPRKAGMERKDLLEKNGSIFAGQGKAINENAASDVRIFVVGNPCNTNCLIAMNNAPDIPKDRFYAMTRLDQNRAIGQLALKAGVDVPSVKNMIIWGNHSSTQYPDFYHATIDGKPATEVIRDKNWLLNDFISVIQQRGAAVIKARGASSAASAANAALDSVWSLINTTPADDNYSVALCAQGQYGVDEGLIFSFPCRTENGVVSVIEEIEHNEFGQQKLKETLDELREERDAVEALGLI

T2 sequence (Q83DB5 1-565 limits assumed): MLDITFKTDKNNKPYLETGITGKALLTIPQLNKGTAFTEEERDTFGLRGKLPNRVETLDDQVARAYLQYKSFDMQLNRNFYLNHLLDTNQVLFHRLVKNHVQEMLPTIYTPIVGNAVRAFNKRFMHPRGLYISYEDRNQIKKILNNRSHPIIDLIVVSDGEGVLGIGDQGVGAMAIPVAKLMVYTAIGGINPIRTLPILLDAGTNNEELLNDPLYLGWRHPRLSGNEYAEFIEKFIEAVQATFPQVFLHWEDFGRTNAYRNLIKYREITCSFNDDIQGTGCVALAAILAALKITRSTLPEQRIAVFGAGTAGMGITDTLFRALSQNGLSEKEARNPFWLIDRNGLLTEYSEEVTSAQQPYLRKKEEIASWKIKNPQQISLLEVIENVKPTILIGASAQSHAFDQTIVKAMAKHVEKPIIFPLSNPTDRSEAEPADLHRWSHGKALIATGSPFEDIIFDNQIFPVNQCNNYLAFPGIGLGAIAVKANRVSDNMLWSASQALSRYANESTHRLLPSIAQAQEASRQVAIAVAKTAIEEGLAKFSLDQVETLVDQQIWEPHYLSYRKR
T1 sequence (Q48796 whole entry): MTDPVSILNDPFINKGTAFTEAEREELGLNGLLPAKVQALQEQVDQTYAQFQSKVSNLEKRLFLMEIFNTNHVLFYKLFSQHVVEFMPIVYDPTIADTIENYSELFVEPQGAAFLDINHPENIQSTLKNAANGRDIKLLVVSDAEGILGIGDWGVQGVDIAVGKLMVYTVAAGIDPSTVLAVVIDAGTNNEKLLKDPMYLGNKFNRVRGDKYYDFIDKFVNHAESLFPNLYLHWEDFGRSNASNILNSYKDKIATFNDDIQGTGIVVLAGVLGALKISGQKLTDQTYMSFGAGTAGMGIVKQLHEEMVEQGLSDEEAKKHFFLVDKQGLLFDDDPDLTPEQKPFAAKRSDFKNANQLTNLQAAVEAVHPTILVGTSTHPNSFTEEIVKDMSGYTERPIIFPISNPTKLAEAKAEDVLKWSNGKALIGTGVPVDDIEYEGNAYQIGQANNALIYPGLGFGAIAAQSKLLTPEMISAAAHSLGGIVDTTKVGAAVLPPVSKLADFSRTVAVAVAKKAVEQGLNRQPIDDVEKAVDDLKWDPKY

SMILES: O=C(O)C[C@H](O)C(=O)O [malate]
- GC-MS detection of lactate and pyruvate (6xHis-oMLE [1]): 6xHis-oMLE could generate amounts of lactate and pyruvate significantly above baseline
- Ki (6xHis-CBU0823; NAD+ 2.5 mM (Fig 6 legend: 5 mM)): 10.86 (95% CI -7.31–29.05) mM

SMILES: NC(=O)c1ccc[n+]([C@@H]2O[C@H](COP(=O)(O)OP(=O)(O)OC[C@H]3O[C@@H](n4cnc5c(N)ncnc54)[C@H](O)[C@@H]3O)[C@@H](O)[C@H]2O)c1 [NAD^+]
- Ki (6xHis-CBU0823; 3 mM malate, printed as NADH, but b28, Fig 6B and S3F show varied NAD+): 6.30 (95% CI 0.27–12.33) mM

SMILES: O=C(O)CC(=O)C(=O)O [oxaloacetate]
- NADH oxidation at 340 nm (6xHis-oMLE [2]): the observed reduction of OAA indicating MDH activity was not detected in the previous characterisation
- Ki (GST-CBU1241): 1.25 (95% CI -0.85–3.39) mM
